pEC50, pKi: −log10 of the molar value. Where two headings read alike, the source gives them in different places.
Key:
[1] = target: Gal4 DNA binding domain fused to the LBD of LXRα in HEK293 cells (Homo sapiens (Human), UniProt Q13133); assay: LXR luciferase transcriptional reporter gene assay, agonist mode, LXRα; format: cell-based; conditions: for pEC50: read-out: Cell LXRα EC50
[2] = target: Gal4 DNA binding domain fused to the LBD of LXRβ in HEK293 cells (Homo sapiens (Human), UniProt P55055); assay: cell-based
Chain of Gal4 DNA binding domain fused to the LBD of LXRβ in HEK293 cells (P55055 222-460 limits assumed): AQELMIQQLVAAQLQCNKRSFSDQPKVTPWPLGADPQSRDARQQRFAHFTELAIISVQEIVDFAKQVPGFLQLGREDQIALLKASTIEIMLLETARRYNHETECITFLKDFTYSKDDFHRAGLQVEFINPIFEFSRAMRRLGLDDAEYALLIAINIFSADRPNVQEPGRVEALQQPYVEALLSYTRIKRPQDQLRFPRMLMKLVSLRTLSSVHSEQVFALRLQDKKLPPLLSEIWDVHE

[3] = target: LXR α LBD protein (Homo sapiens (Human), UniProt Q13133); assay: LXR α radioligand binding assay (SPA, competition with [3H]TO901317); conditions: read-out: LXRα Binding Ki
Chain of LXR α LBD protein (Q13133 209-447): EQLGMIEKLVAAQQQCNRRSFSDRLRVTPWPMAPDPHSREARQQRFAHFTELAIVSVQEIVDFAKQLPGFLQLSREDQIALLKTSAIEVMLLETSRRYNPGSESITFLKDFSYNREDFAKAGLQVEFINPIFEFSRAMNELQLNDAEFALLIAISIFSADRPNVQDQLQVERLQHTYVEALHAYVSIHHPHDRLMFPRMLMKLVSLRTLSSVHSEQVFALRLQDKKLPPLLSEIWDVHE

[4] = target: LXR β LBD protein (Homo sapiens (Human), UniProt P55055); assay: biochemical; format: binding
Chain of LXR β LBD protein (P55055 222-460 limits assumed): as the sequence (P55055 222-460 limits assumed) above

[5] = Biological Test Example 2, agonist mode

Chain of Gal4 DNA binding domain fused to the LBD of LXRα in HEK293 cells (Q13133 209-447): as the sequence (Q13133 209-447) above

pKi [4] | SMILES | pEC50 ([1]; agonist mode) | pEC50 [2] | Cell LXRβ efficacy ([2]; agonist mode) | pKi [3] | pKi ([4]; read-out: LXRβ Binding Ki) | Cell LXRα efficacy [1] | pEC50 [1] | pEC50 ([2]; agonist mode, read-out: Cell LXRβ EC50) | Cell LXRβ efficacy [2, 5] | Cell LXRβ efficacy [2] | pEC50 [1, 5] | pKi ([4]; Biological Test Example 1, read-out: LXRβ Binding Ki)
– | CCOC(=O)c1cnc(N2CCN(c3cccc(S(C)(=O)=O)c3)C[C@H]2c2nc(C)cs2)nc1C(F)(F)F [9-8, ethyl (S)-2-(4-(3-(methylsulfonyl)phenyl)-2-(4-methylthiazol-2-yl)piperazin-1-yl)-4-(trifluoromethyl)pyrimidine-5-carboxylate] | < 4.70 | 5.61 | 2469 (14) % | 5.63 | 6.18 | – | – | – | – | – | – | –
– | NS(=O)(=O)c1cccc(N2CCN(C[C@H]3CC[C@H](C(F)F)CC3)[C@@H](c3ccccc3)C2)c1 (single isomer, unassigned) [48-21] | – | – | 10% | 6.29 | 6.76 | 2703 (20) % | 5.57 | 6.03 | – | – | – | –
– | CO[C@H]1CC[C@@H](CN2CCN(c3ccc(CO)c(S(C)(=O)=O)c3)C[C@@H]2C(C)C)CC1 (single isomer, unassigned) [Cpd No 51-7] | – | 7.38 | – | 6.52 | 7.29 | 154 (80) % | 6.81 | – | 42 (84) % | – | – | –
– | COC(=O)c1cnc(N2CCN(c3ccc(F)c(S(C)(=O)=O)c3)C[C@H]2C(C)C)nc1 [7-14, methyl (R)-2-(4-(4-fluoro-3-(methylsulfonyl)phenyl)-2-isopropylpiperazin-1-yl)pyrimidine-5-carboxylate] | – | 6.42 | 379 (17) % | 5.54 | 6.55 | 7124 (30) % | 5.15 | – | – | – | – | –
5.91 | CN(C)C(=O)c1cnc(N2CCN(c3ccc(F)c(S(C)(=O)=O)c3)C[C@H]2c2ccc(F)cc2)nc1C(F)(F)F [17-33, (R)-2-(4-(4-fluoro-3-(methylsulfonyl)phenyl)-2-(4-fluorophenyl)piperazin-1-yl)-N,N-dimethyl-4-(trifluoromethyl)pyrimidine-5-carboxamide] | < 4.70 | < 4.70 | – | 4.98 | – | – | – | – | – | – | – | –
– | Cc1coc(-c2ccc(N3CCN(c4ncc(CO)c(C(F)(F)F)n4)[C@H](C(C)C)C3)cc2S(C)(=O)=O)n1 [11-8, (R)-(2-(2-isopropyl-4-(4-(4-methyloxazol-2-yl)-3-(methylsulfonyl)phenyl)piperazin-1-yl)-4-(trifluoromethyl)pyrimidin-5-yl)methanol] | 5.53 | 6.39 | 405 (53) % | 5.93 | 6.88 | 2934 (53) % | – | – | – | – | – | –
– | Cc1noc(-c2ccc(N3CCN(c4ncc(CO)c(C(F)(F)F)n4)[C@H](C(C)C)C3)cc2S(C)(=O)=O)n1 [11-10, (R)-(2-(2-isopropyl-4-(4-(3-methyl-1,2,4-oxadiazol-5-yl)-3-(methylsulfonyl)phenyl)piperazin-1-yl)-4-(trifluoromethyl)pyrimidin-5-yl)methanol] | 5.20 | 5.65 | 2253 (36) % | < 5.48 | 6.11 | 6291 (28) % | – | – | – | – | – | –
– | CC(C)[C@H]1CN(c2cccc(S(C)(=O)=O)c2)CCN1C[C@@H]1CC[C@H](C(F)(F)F)OC1 (single isomer, unassigned) [Cpd No 49-8] | – | 7.44 | – | 7.08 | 7.96 | 103 (79) % | 6.99 | – | – | 36 (93) % | – | –
– | CC(C)[C@@H]1CN(c2ccc(F)c(S(C)(=O)=O)c2)CCN1c1ncc(C(=O)N(C)CCCNC(=O)OC(C)(C)C)c(C(F)(F)F)n1 [17-23, tert-butyl (R)-(3-(2-(4-(4-fluoro-3-(methylsulfonyl)phenyl)-2-isopropylpiperazin-1-yl)-N-methyl-4-(trifluoromethyl)pyrimidine-5-carboxamido)propyl)carbamate] | < 4.70 | < 4.70 | – | 5.85 | 6.59 | – | – | – | – | – | – | –
– | CC(C)[C@@H]1CN(c2ccc(F)c(S(N)(=O)=O)c2)CCN1c1ncc(C(C)(C)O)c(C(F)(F)F)n1 [10-2, (R)-2-fluoro-5-(4-(5-(2-hydroxypropan-2-yl)-4-(trifluoromethyl)pyrimidin-2-yl)-3-isopropylpiperazin-1-yl)benzenesulfonamide] | 5.57 | 6.32 | 475 (39) % | 6.33 | 7.47 | 2692 (45) % | – | – | – | – | – | –
– | Cc1nnc(-c2ccc(N3CCN(c4ncc(CO)c(C(F)(F)F)n4)[C@H](C(C)C)C3)cc2S(C)(=O)=O)o1 [11-9, (R)-(2-(2-isopropyl-4-(4-(5-methyl-1,3,4-oxadiazol-2-yl)-3-(methylsulfonyl)phenyl)piperazin-1-yl)-4-(trifluoromethyl)pyrimidin-5-yl)methanol] | – | 6.22 | 603 (39) % | 5.71 | 6.61 | 3283 (31) % | 5.48 | – | – | – | – | –
– | CO[C@]1(C(F)(F)F)CC[C@@H](CN2CCN(c3ccc(CO)c(S(C)(=O)=O)c3)C[C@@H]2C(C)C)CC1 (single isomer, unassigned) [Cpd No 48-79] | – | 9.00 | – | 8.30 | – | 6 (58) % | – | – | 1 (115) % | – | 8.22 | 8.70
8.52 | CC(=O)c1cnc(N2CCN(c3ccc(F)c(S(C)(=O)=O)c3)C[C@H]2C(C)C)nc1C(F)(F)F [Cpd No 13-1, (R)-1-(2-(4-(4-fluoro-3-(methylsulfonyl)phenyl)-2-isopropylpiperazin-1-yl)-4-(trifluoromethyl)pyrimidin-5-yl)ethan-1-one] | – | 7.31 | 49 (51) % | 7.21 | – | 253 (63) % | 6.60 | – | – | – | – | –
– | CC(C)[C@@H]1CN(c2ccc(F)c(S(C)(=O)=O)c2)CCN1c1nc2ncccc2s1 [7-59, (R)-2-(4-(4-fluoro-3-(methylsulfonyl)phenyl)-2-isopropylpiperazin-1-yl)thiazolo[4,5-b]pyridine] | – | 6.54 | – | 6.55 | 7.41 | 827 (84) % | 6.08 | – | – | 289 (83) % | – | –
6.67 | CC(C)Oc1cc(C(F)(F)F)nc(N2CCN(c3ccc(F)c(S(C)(=O)=O)c3)C[C@H]2C(C)C)n1 [Cpd No 23-1, (R)-2-(4-(4-fluoro-3-(methylsulfonyl)phenyl)-2-isopropylpiperazin-1-yl)-4-isopropoxy-6-(trifluoromethyl)pyrimidine] | < 4.70 | < 4.70 | – | 5.93 | – | – | – | – | – | – | – | –
– | CC(C)[C@@H]1CN(c2ccc(F)c(S(C)(=O)=O)c2)CCN1c1nc(C(F)(F)F)c(C(C)(C)O)s1 [Cpd No 26-1, (R)-2-(2-(4-(4-fluoro-3-(methylsulfonyl)phenyl)-2-isopropylpiperazin-1-yl)-4-(trifluoromethyl)thiazol-5-yl)propan-2-ol] | 6.23 | 6.73 | 185 (98) % | 6.95 | 8.30 | 584 (102) % | – | – | – | – | – | –
– | CC(C)[C@@H]1CN(c2cc(S(C)(=O)=O)c(C(N)=O)cc2Cl)CCN1c1nccc(C(F)(F)F)n1 [4-4, (R)-5-chloro-4-(3-isopropyl-4-(4-(trifluoromethyl)pyrimidin-2-yl)piperazin-1-yl)-2-(methylsulfonyl)benzamide] | 5.54 | 5.87 | – | < 5.48 | 5.79 | 2852 (7) % | – | – | – | – | – | –

— US10144715B2, “Piperazine derivatives as liver X receptor modulators” (priority 2014, dated 2018)
